The text below walks through data of patent US20120070392A1, “COMPOSITION FOR INHIBITING ERYTHEMA CAUSED BY ULTRAVIOLET RADIATION CONTAINING A DIPEPTIDE AS ACTIVE INGREDIENT” (priority 2009, published 2012).

The test system of one test is PGE2 production. Description: Inhibition of UVB-induced PGE2 production in cultured human keratinocytes (PGE2 assay kit, calibrated with MTT absorbance). The format is cell-based.
Conditions: not given
How it is done: Human keratinocytes were seeded at a density of 1×10^5 cells/well to 6-well plates containing 2 mL of KGM(keratinocyte growth medium, Clonetics, San Diego, Calif., USA) per well and cultured overnight. Then, the medium was replaced with KBM(keratinocyte basal medium) supplemented with 0.1% BSA(bovine serum albumin) and the cells were cultured for an additional 24 hours. Subsequently, the cells were pre-treated for an additional 24 hours with 2 mL of the same medium containing 10 μg/ml of each of the dipeptides listed in Table 1. […] The pre-treated medium was transferred to new 24 well plates and 1 mL of DPBS(Dulbecco's phosphate buffered saline) was added to the cells in each well. During UV irradiation, the transferred medium was stored in a cell incubator. […] At this time, the control was covered with aluminum foil. After the removal of DPBS, the transferred medium was returned to each well. The cells were further cultured for 24 hours, after which 1 mL of the medium was transferred to microcentrifuge tubes. […] The supernatants were then removed and the formazan crystals were solubilized in 1 ml of DMSO(dimethylsulfoxide). One hundred μL of the solution was transferred to each well of 96-well plates and an optical density was determined at 540 nm using an ELISA(enzyme-linked immunosorbent assay) reader. […] The concentration of PGE2 was determined using a PGE2 Assay Kit(KGE004, R&D Systems, Inc., Minneapolis, Minn., USA) according to the manufacturer's instruction. […] After removal of the reaction, the wells were washed five times with 400 μL of wash buffer. To each well was added 200 μL of a substrate solution, followed by incubation for 20 30 min. The reaction was terminated with 50 μL of a stop solution per well before determining absorbance at 450 nm on an ELISA reader. The PGE2 concentration of each sample was calculated from the standard graph and calibrated with the absorbance obtained in the MTT assay to determine their inhibitory activity against PGE2 production.
Regarding `NCC(=O)O.N[C@@H](CC(=O)O)C(=O)O` [DG, aspartic acid-glycine], the “% Inhibition against PGE2 Production” value was determined as 79.7%.

For the compound tyrosine-glutamine [YQ], the “% Inhibition against PGE2 Production” value was 13.5%.

For the compound proline-phenylalanine [PF], the “% Inhibition against PGE2 Production” value was 32.8%.

For alanine-valine [AV], the “% Inhibition against PGE2 Production” value is 44.8%.

asparagine-proline [NP]: the “% Inhibition against PGE2 Production” value worked out at 70.6%.

Regarding tyrosine-aspartic acid [YD], the “% Inhibition against PGE2 Production” value was determined as 88.0%.

For the compound isoleucine-methionine [IM], the “% Inhibition against PGE2 Production” value is on record as 57.1%.

Regarding `NCC(=O)O.NCCCC[C@H](N)C(=O)O` [GK, glycine-lysine], the “% Inhibition against PGE2 Production” value is recorded as 87.0%.

glutamic acid-proline [EP]: the “% Inhibition against PGE2 Production” value is reported as 80.8%.

As for tyrosine-tyrosine [YY], the “% Inhibition against PGE2 Production” value is on record as 83.5%.

In the case of tyrosine-arginine, the “% Inhibition against PGE2 Production” value is on record as 83.7%.

For valine-asparagine [VN], the “% Inhibition against PGE2 Production” value was 31.3%.

For methionine-arginine [MR], the “% Inhibition against PGE2 Production” value was 36.5%.

For the compound serine-histidine [SH], the “% Inhibition against PGE2 Production” value is 51.5%.

On to histidine-lysine [HK], for which the “% Inhibition against PGE2 Production” value is on record as 43.8%.

Regarding histidine-serine [HS], the “% Inhibition against PGE2 Production” value was 53.2%.

Regarding tyrosine-threonine [YT], the “% Inhibition against PGE2 Production” value worked out at 91.5%.

methionine-glutamine [MQ]: the “% Inhibition against PGE2 Production” value is given as 87.5%.

In the case of proline-histidine [PH], the “% Inhibition against PGE2 Production” value amounted to 74.7%.

As for tryptophan-proline [WP], the “% Inhibition against PGE2 Production” value worked out at 68.3%.

glutamine-tyrosine [QY]: the “% Inhibition against PGE2 Production” value is 54.6%.

Take methionine-aspartic acid [MD]: the “% Inhibition against PGE2 Production” value came to 64.8%.

serine-tyrosine [SY]: the “% Inhibition against PGE2 Production” value is 91.5%.

As for proline-aspartic acid [PD], the “% Inhibition against PGE2 Production” value was 84.3%.

Regarding methionine-threonine [MT], the “% Inhibition against PGE2 Production” value amounted to 71.2%.

aspartic acid-proline [DP]: the “% Inhibition against PGE2 Production” value is on record as 89.3%.

Turning to tyrosine-glutamic acid [YE], the “% Inhibition against PGE2 Production” value turned out to be 74.2%.

As to isoleucine-tyrosine [IY], the “% Inhibition against PGE2 Production” value worked out at 68.6%.

For the compound lysine-methionine [KM], the “% Inhibition against PGE2 Production” value was found to be 84.0%.

For the compound tyrosine-methionine [YM], the “% Inhibition against PGE2 Production” value is on record as 89.6%.

With `NCC(=O)O.N[C@@H](CCC(=O)O)C(=O)O` [EG, glutamic acid-glycine], the “% Inhibition against PGE2 Production” value was 90.9%.

The test is the same for the next values; noted with them: 10 μg/ml dipeptide, 24 h pre-treatment, human keratinocytes, UVB 100 mJ/cm^2, medium assayed 24 h after irradiation; 0% or lower expressed as zero; 10% or more regarded as effective.
Regarding proline-alanine [PA], the “% Inhibition against PGE2 Production” value is 76.8%.

As for histidine-alanine [HA], the “% Inhibition against PGE2 Production” value turned out to be 44.1%.

For the compound glycine-alanine [GA], the “% Inhibition against PGE2 Production” value stood at 17.6%.

Turning to asparagine-alanine [NA], the “% Inhibition against PGE2 Production” value turned out to be 42.0%.

As to phenylalanine-methionine [FM], the “% Inhibition against PGE2 Production” value is given as 67.5%.

Regarding tryptophan-alanine [WA], the “% Inhibition against PGE2 Production” value turned out to be 88.5%.

As for histidine-phenylalanine [HF], the “% Inhibition against PGE2 Production” value was found to be 43.2%.

For the compound phenylalanine-alanine [FA], the “% Inhibition against PGE2 Production” value is given as 48.8%.

Take valine-alanine: the “% Inhibition against PGE2 Production” value is recorded as 64.7%.

Staying with this test, now noted: 10 μg/ml dipeptide, 24 h pre-treatment, human keratinocytes, UVB 100 mJ/cm^2, medium assayed 24 h after irradiation; […]; 10% or more regarded as effective.
On to tryptophan-valine [WV], for which the “% Inhibition against PGE2 Production” value worked out at 79.6%.

As for glutamic acid-aspartic acid [ED], the “% Inhibition against PGE2 Production” value came out at 85.1%.

asparagine-phenylalanine [NF]: the “% Inhibition against PGE2 Production” value was determined as 88.2%.

Turning to asparagine-glutamic acid, the “% Inhibition against PGE2 Production” value is given as 14.5%.

arginine-glutamic acid [RE]: the “% Inhibition against PGE2 Production” value is on record as 58.8%.

With threonine-aspartic acid [TD], the “% Inhibition against PGE2 Production” value is listed as 77.6%.

Take phenylalanine-arginine [FR]: the “% Inhibition against PGE2 Production” value amounted to 92.9%.

With arginine-asparagine [RN], the “% Inhibition against PGE2 Production” value stood at 10.7%.

As for aspartic acid-aspartic acid [DD], the “% Inhibition against PGE2 Production” value is recorded as 64.2%.

For glutamine-serine [QS], the “% Inhibition against PGE2 Production” value was found to be 28.2%.

As to tryptophan-leucine [WL], the “% Inhibition against PGE2 Production” value is on record as 90.2%.

With glutamic acid-glutamine [EQ], the “% Inhibition against PGE2 Production” value worked out at 79.6%.

With aspartic acid-threonine [DT], the “% Inhibition against PGE2 Production” value is recorded as 95.8%.

Take glutamic acid-phenylalanine [EF]: the “% Inhibition against PGE2 Production” value came out at 13.3%.

As to aspartic acid-serine [DS], the “% Inhibition against PGE2 Production” value is listed as 84.0%.

Regarding cysteine-serine [CS], the “% Inhibition against PGE2 Production” value is reported as 53.1%.

threonine-glutamine [TQ]: the “% Inhibition against PGE2 Production” value is 51.2%.

With tryptophan-glutamic acid [WE], the “% Inhibition against PGE2 Production” value was 79.9%.

For glutamic acid-lysine [EK], the “% Inhibition against PGE2 Production” value was 76.5%.

As to threonine-arginine [TR], the “% Inhibition against PGE2 Production” value was determined as 53.0%.

For isoleucine-glutamine [IQ], the “% Inhibition against PGE2 Production” value stood at 72.0%.

In the case of phenylalanine-leucine [FL], the “% Inhibition against PGE2 Production” value worked out at 29.2%.

aspartic acid-lysine [DK]: the “% Inhibition against PGE2 Production” value is 76.6%.

On to cysteine-tryptophan [CW], for which the “% Inhibition against PGE2 Production” value came to 71.0%.

alanine-phenylalanine [AF]: the “% Inhibition against PGE2 Production” value was 84.2%.

Take lysine-valine [KV]: the “% Inhibition against PGE2 Production” value was determined as 71.6%.

For serine-arginine [SR], the “% Inhibition against PGE2 Production” value is 52.9%.

For valine-glutamine [VQ], the “% Inhibition against PGE2 Production” value is 71.2%.

For alanine-aspartic acid [AD], the “% Inhibition against PGE2 Production” value was 58.3%.

In the case of leucine-glutamic acid, the “% Inhibition against PGE2 Production” value amounted to 92.8%.

For alanine-serine [AS], the “% Inhibition against PGE2 Production” value was 72.5%.

asparagine-arginine [NR]: the “% Inhibition against PGE2 Production” value was found to be 72.8%.

Turning to alanine-isoleucine [AI], the “% Inhibition against PGE2 Production” value stood at 60.1%.

Take threonine-isoleucine [TI]: the “% Inhibition against PGE2 Production” value stood at 36.3%.

Regarding tryptophan-phenylalanine [WF], the “% Inhibition against PGE2 Production” value worked out at 81.7%.

alanine-arginine: the “% Inhibition against PGE2 Production” value stood at 95.7%.

Regarding cysteine-glutamic acid [CE], the “% Inhibition against PGE2 Production” value is 54.4%.

With `NC(=O)CC(N)C(=O)O` (stereo not shown) [NN, asparagine-asparagine], the “% Inhibition against PGE2 Production” value is 48.3%.

aspartic acid-phenylalanine [DF]: the “% Inhibition against PGE2 Production” value came to 83.4%.
